In patent US20240041830A1, “CIRCULATING BIOMARKERS OF RESPONSE TO PD-1/PD-L1 BLOCKADE AND GSK-3 INHIBITION” (Brown University, priority 2022, published 2024):

Assay: toxicity monitoring in CT-26 BALB/c mice: body weight, serum chemistry, complete blood count
Assay type: in vivo, mouse
Protocol: In vivo studies. The experimental in vivo protocol (Protocol #19-01-003) was approved by the Institutional Animal Care and Use Committee of Brown University (Providence, RI, USA). Six-week to seven-week-old female BALB/c mice (RRID: IMSR_JAX:000651) were purchased from Taconic. A total of 50,000 cells were suspended in 50 μL ice-cold PBS and 50 μL Matrigel (Catalog #354234, Corning, New York, NY, USA), and 100 μL was injected subcutaneously into the rear flanks. Once tumor volume reached at least 100 mm^3, mice were randomly assigned to one of seven groups (12 mice/group): Control (isotype), elraglusib, elraglusib+Isotype, anti-PD-1, anti-PD-L1, elraglusib+anti-PD-1, and elraglusib+anti-PD-L1. All treatments were delivered by IP injection using the following dosing schedule: Isotype (70 mg/kg, twice a week), elraglusib (70 mg/kg, twice a week), anti-PD-1 (10 mg/kg, twice a week), anti-PD-L1 (10 mg/kg, twice a week). Treatment dosing was determined based on previous studies of elraglusib and anti-PD-1/anti-PD-L1. Ugolkov et al., Anticancer Drugs, 29, 717-724 (2018); McClanahan et al., Blood, 126, 203-211 (2015); Bernardo et al., Oncoimmunology, 10, 1881268 (2021). The solvent for elraglusib was DMSO and the formulation buffer for elraglusib was made using 75% PEG400, 7% Tween 80, and 18% Ethanol. The treatment continued until mice developed signs of discomfort from excessive tumor growth. Mice were weighed once a week to monitor signs of drug toxicity. The length (L) and width (W) of the masses were measured three times per week with a digital caliper, and the tumor volume was calculated by applying the formula: 0.5LW2 Collection of whole blood and serum was performed by cardiac puncture and sent to Antech Diagnostics GLP (Morrisville, NC, USA) for blood cell count and chemistry tests, or in-house cytokine profiling. Tumors and organs were dissected and harvested for analysis by immunohistochemistry and flow cytometry.
The inventors evaluated the potential for elraglusib to increase the efficacy of immune checkpoint blockade and utilized a syngeneic murine colon carcinoma BALB/c murine model using a MSS cell line CT-26 (FIG. 4A). Mice were randomly assigned to one of seven groups: isotype (N=12), elraglusib (N=12), elraglusib+isotype (N=12), anti-PD-1 (N=12), anti-PD-L1 (N=12), elraglusib+anti-PD-1 (N=12), and elraglusib+ anti-PD-L1 (N=12). […] The inventors saw the most sustained response in the elraglusib and anti-PD-L1 combination therapy group.
TABLE 13 description. […] Whole blood from long-term mice sacrificed was submitted for serum chemistry analysis. Results are shown from the complete metabolic panel and complete blood count with differential. ALB: Albumin, ALP: Alkaline Phosphatase, ALT: Alanine aminotransferase, AMY: Amylase, ANIS: Anisocytosis, AST: Aspartate aminotransferase, ATYP: Atypical Lymphs, BAS: Absolute Basophils, BAS%: % Basophils, BUN: Urea Nitrogen, CA: Calcium, CHOL: Cholesterol, CL: Chloride, CPK: Creatine kinase, CPLT: Clumped Platelets, CREA: Creatinine, DBIL: Direct Bilirubin, EOS: Absolute Eosinophils, EOS% : % Eosinophils, GGT: Gamma-glutamyl Transferase, GLU: Glucose, HB: Hemoglobin, HCT: Hematocrit, HJB: Howell-Jolly Bodies, HYPO: Hypochromasia, HYPR: Hyperchromasia, K: Potassium, LDH: Lactate Dehydrogenase, LIP: Lipase, LPLT: Large Platelets, LUC: Absolute Large Unstained Cells, LUC%: % Large Unstained Cells, LYM: Absolute Lymphocytes, LYM%: % Lymphocytes, MAC: Macrocytosis, MCH: Mean Corpuscular Hemoglobin, MCHC: Mean Corpuscular Hemoglobin […], MCV: Mean Corpuscular Volume, MG: Magnesium, MIC: Microcytosis, MON: Absolute Monocytes, MON%: % Monocytes, NA: Sodium, NEU: Absolute Neutrophils, NEU%: % Neutrophils, PHOS: Inorganic Phosphorus, PLT: Platelet Count, POLK: Poikilocytosis, RBC: Red Blood Cell Count, TBIL: Total Bilirubin, TPRO: Total Protein, TRIG: Triglyceride, WBC: White Blood Cell Count.

For Cn1cc(C2=C(c3coc4ccc(F)cc34)C(=O)NC2=O)c2cc3c(cc21)OCO3 [elraglusib], the “ALB (Albumin)” value (long-term mice sacrificed) was 2.7 g/dL, the “ALP (Alkaline Phosphatase)” value (long-term mice sacrificed) was 4 U/L and the “ALT (Alanine aminotransferase)” value (long-term mice sacrificed) was 26 U/L. The “AMY (Amylase)” value (long-term mice sacrificed) was 275 U/L, the “AST (Aspartate aminotransferase)” value (long-term mice sacrificed) was 198 U/L and the “BUN (Urea Nitrogen)” value (long-term mice sacrificed) was 27 mg/dL. For the same compound, the “CHOL (Cholesterol)” value (long-term mice sacrificed) was 101 mg/dL, the “CL (Chloride)” value (long-term mice sacrificed) was 111 mmol/L and the “CPK (Creatine kinase)” value (long-term mice sacrificed) was 1968 U/L. For the same compound, the “CREA (Creatinine)” value (long-term mice sacrificed) was 0.2 mg/dL, the “DBIL (Direct Bilirubin)” value (long-term mice sacrificed) was 0 mg/dL and the “GGT (Gamma-glutamyl Transferase)” value (long-term mice sacrificed) was 0 U/L. The “GLU (Glucose)” value (long-term mice sacrificed) was 230 mg/dL, the “K (Potassium)” value (long-term mice sacrificed) was greater than 10.0 mmol/L and the “LDH (Lactate Dehydrogenase)” value (long-term mice sacrificed) was 2230 U/L. The “LIP (Lipase)” value (long-term mice sacrificed) was 59 U/L, the “MG (Magnesium)” value (long-term mice sacrificed) was 1.2 mg/dL and the “NA (Sodium)” value (long-term mice sacrificed) was 146 mmol/L. The “PHOS (Inorganic Phosphorus)” value (long-term mice sacrificed) was 8.2 mg/dL, the “TBIL (Total Bilirubin)” value (long-term mice sacrificed) was 0.5 mg/dL and the “TPRO (Total Protein)” value (long-term mice sacrificed) was 4.5 g/dL. For the same compound, the “TRIG (Triglyceride)” value (long-term mice sacrificed) was 136 mg/dL and the “renal function (BUN and creatinine)” value (mouse, in vivo) was “maintained normal renal function”.
